# From patent publication US20210137126A1, “USE OF PEPTIDES AS IN[…]” (INSTITUT NATIONAL DES SCIENCES APPLIQUEES DE LYON, priority 2018, published 2021)
# Tested on: pea aphid Acyrthosiphon pisum
# Assay: Insecticide test: ingestion of the peptide in artificial medium by pea aphid larvae, mortality monitored over 7 days
# Assay type: in vivo
# Conditions: for TL50 (lethal time at which mortality of individuals is 50%): survival analysis, normal logarithmic adjustment
# Description: The experiments were carried out on aphids from the parthenogenetic clone of the pea aphid LL01 which contained only the primary symbiont B. aphidicola. The aphids were bred and kept on feva bean plants (Vicia faba L., Aquadulce variety) under climate-controlled conditions (temperature 21±1° C., relative humidity 70%, photoperiod of 16 h), in order to obtain aphids which reproduced solely by viviparous parthenogenesis. In order to reduce the variability linked to the use of individuals at different stages of development, the aphids were obtained from a synchronized brood. For this, adult aphids that were ready to lay were placed on feva bean plants. […] The manipulation was carried out with a negative control composed solely of artificial medium and a positive control representing one of the concentrations of the range being studied with the aphids. The range being studied comprised different media containing the BCR4 peptide studied at various concentrations which varied from 5 to 80 μM. The experiments were carried out on thirty larvae per condition divided into three distinct groups of ten individuals.
# All of the data regarding the mortality of the aphids were analyzed statistically by standard survival processing. All of the BCR4 concentrations were analyzed separately in a parametric survival analysis with a normal logarithmic adjustment.
# The measurement of the insecticidal activity of BCR4 was carried out by incorporating increasing doses of peptides into the nutrient medium for the aphids and monitoring of their mortality was carried out over 7 days.
sequence,measurement,setting,value
"DFDPTEFKGPFPTIEICSKYCAVVCNYTSRPCYCVEAAKERDQWFPYCYD (listed as Acyrthosiphon pisum) [BCR4, Bacteriocyte Cysteine Rich peptide of Acyrthosiphon pisum]",TL50 (lethal time at which mortality of individuals is 50%),BCR4 concentration 5 μM in artificial medium,>20 days
same,TL50 (lethal time at which mortality of individuals is 50%),BCR4 concentration 10 μM in artificial medium,11.3 days
same,TL50 (lethal time at which mortality of individuals is 50%),BCR4 concentration 20 μM in artificial medium,3.48 days
same,TL50 (lethal time at which mortality of individuals is 50%),BCR4 concentration 27.5 μM in artificial medium,3.24 days
same,TL50 (lethal time at which mortality of individuals is 50%),BCR4 concentration 35 μM in artificial medium,1.94 days
same,TL50 (lethal time at which mortality of individuals is 50%),BCR4 concentration 40 μM in artificial medium,1.76 days
same,TL50 (lethal time at which mortality of individuals is 50%),BCR4 concentration 80 μM in artificial medium,1.16 days
same,mortality at onset of the dose-response effect,from the first day following ingestion,high mortality
same,dose-response over the survival time for the aphids,"increasing doses 5 to 80 μM, mortality monitored over 7 days",very significant dose-response
same,range of activity (insecticidal),"pea aphid, peptide in nutrient medium",5 to 80 µM
